Source: patent US20240124432A1, “HERBICIDAL COMPOUNDS” (SYNGENTA CROP PROTECTION AG, priority 2020, published 2024)

Columns and labels:
Format in all cases: in vivo
SETFA [1] = experiment: Pre-emergence biological efficacy; conditions: Setaria faberi, 312 h, evaluated after 13 days, read-out: damage to plant (100=total damage to plant; 0=no damage to plant)
Procedure: (§1) Seeds of weeds and/or crops were sown in standard soil in pots. After cultivation for one day under controlled conditions in a glasshouse (at 24/19° C., day/night; 16 hours light), the plants were sprayed with an aqueous spray solution derived from the formulation of the technical active ingredient in a small amount of acetone and a special solvent and emulsifier mixture referred to as IF50 (11.12% Emulsogen EL360 TM+44.44% N-methylpyrrolidone+44.44% Dowanol DPM glycol ether), to create a 50g/l solution which was then diluted using 0.2% Genapol XO80 as diluent to give the desired final dose of test compound.
(§2) The test plants were then grown under controlled conditions in the glasshouse (at 24/18° C., day/night; 15 hours light; 50% humidity) and watered twice daily. After 13 days the test was evaluated (100=total damage to plant; 0=no damage to plant).

AMAPA [2] = experiment: Pre-emergence biological efficacy; conditions: Amaranthus palmeri, 312 h, evaluated after 13 days, read-out: damage to plant (100=total damage to plant; 0=no damage to plant)
Procedure: as §1, §2

IPOHE [3] = experiment: Pre-emergence biological efficacy; conditions: Ipomoea hederacea, 312 h, evaluated after 13 days, read-out: damage to plant (100=total damage to plant; 0=no damage to plant)
Procedure: as §1, §2

ECHCG [4] = experiment: Pre-emergence biological efficacy; conditions: Echinochloa crus-galli, 312 h, evaluated after 13 days, read-out: damage to plant (100=total damage to plant; 0=no damage to plant)
Procedure: as §1, §2

LOLPE [5] = experiment: Pre-emergence biological efficacy; conditions: Lolium perenne, 312 h, evaluated after 13 days, read-out: damage to plant (100=total damage to plant; 0=no damage to plant)
Procedure: as §1, §2

EPHHL [6] = experiment: Pre-emergence biological efficacy; conditions: Euphorbia heterophylla, 312 h, evaluated after 13 days, read-out: damage to plant (100=total damage to plant; 0=no damage to plant)
Procedure: as §1, §2

CHEAL = experiment: Post-emergence biological efficacy; conditions: Chenopodium album, 312 h, evaluated after 13 days, read-out: damage to plant (100=total damage to plant; 0=no damage to plant)
Procedure: as §1, with “14 days” for “one day”
(§3) The test plants were then grown under controlled conditions in the glasshouse (at 24/18° C., day/night; 15 hours light; 50% humidity)and watered twice daily. After 13 days the test was evaluated (100=total damage to plant; 0=no damage to plant).

SETFA [7] = experiment: Post-emergence biological efficacy; conditions: Setaria faberi, 312 h, evaluated after 13 days, read-out: damage to plant (100=total damage to plant; 0=no damage to plant)
Procedure: as §1, with “14 days” for “one day”
as §3

AMAPA [8] = experiment: Post-emergence biological efficacy; conditions: Amaranthus palmeri, 312 h, evaluated after 13 days, read-out: damage to plant (100=total damage to plant; 0=no damage to plant)
Procedure: as §1, with “14 days” for “one day”
as §3

ELEIN = experiment: Post-emergence biological efficacy; conditions: 312 h, evaluated after 13 days, read-out: damage to plant (100=total damage to plant; 0=no damage to plant)
Procedure: as §1, with “14 days” for “one day”
as §3

IPOHE [9] = experiment: Post-emergence biological efficacy; conditions: Ipomoea hederacea, 312 h, evaluated after 13 days, read-out: damage to plant (100=total damage to plant; 0=no damage to plant)
Procedure: as §1, with “14 days” for “one day”
as §3

DIGSA = experiment: Post-emergence biological efficacy; conditions: Digitaria sanguinalis, 312 h, evaluated after 13 days, read-out: damage to plant (100=total damage to plant; 0=no damage to plant)
Procedure: as §1, with “14 days” for “one day”
as §3

ECHCG [10] = experiment: Post-emergence biological efficacy; conditions: Echinochloa crus-galli, 312 h, evaluated after 13 days, read-out: damage to plant (100=total damage to plant; 0=no damage to plant)
Procedure: as §1, with “14 days” for “one day”
as §3

LOLPE [11] = experiment: Post-emergence biological efficacy; conditions: Lolium perenne, 312 h, evaluated after 13 days, read-out: damage to plant (100=total damage to plant; 0=no damage to plant)
Procedure: as §1, with “14 days” for “one day”
as §3

EPHHL [12] = experiment: Post-emergence biological efficacy; conditions: Euphorbia heterophylla, 312 h, evaluated after 13 days, read-out: damage to plant (100=total damage to plant; 0=no damage to plant)
Procedure: as §1, with “14 days” for “one day”
as §3

| Compound | pest or weed control at 250 g/ha (SETFA [1]) | pest or weed control at 250 g/ha (AMAPA [2]) | pest or weed control at 250 g/ha (IPOHE [3]) | pest or weed control at 250 g/ha (ECHCG [4]) | pest or weed control at 250 g/ha (LOLPE [5]) | pest or weed control at 250 g/ha (EPHHL [6]) | pest or weed control at 250 g/ha (CHEAL) | pest or weed control at 250 g/ha (SETFA [7]) | pest or weed control at 250 g/ha (AMAPA [8]) | pest or weed control at 250 g/ha (ELEIN) | pest or weed control at 250 g/ha (IPOHE [9]) | pest or weed control at 250 g/ha (DIGSA) | pest or weed control at 250 g/ha (ECHCG [10]) | pest or weed control at 250 g/ha (LOLPE [11]) | pest or weed control at 250 g/ha (EPHHL [12]) |
| --- | --- | --- | --- | --- | --- | --- | --- | --- | --- | --- | --- | --- | --- | --- | --- |
| CCOC(=O)C1(C)CC(c2cc(-c3ccc(C(F)(F)F)cn3)c(F)cc2Cl)=NO1 (stereo not drawn) [Compound 1-79, Ethyl 3-[2-chloro-4-fluoro-5-[5-(trifluoromethyl)-2-pyridyl]phenyl]-5-methyl-4H-isoxazole-5-carboxylate] | 60% | 50% | 100% | 80% | 40% | 60% | 100% | 100% | 100% | 90% | 100% | 100% | 100% | 100% | 100% |
| CCOC(=O)C1(C)CC(c2cc(-c3ncc(C(F)(F)F)cc3F)c(F)cc2Cl)=NO1 (stereo not drawn) [Compound 1-91, Ethyl 3-[2-chloro-4-fluoro-5-[3-fluoro-5-(trifluoromethyl)-2-pyridyl]-phenyl]-5-methyl-4H-isoxazole-5-carboxylate] | 100% | 100% | 100% | 100% | 90% | 100% | 100% | 100% | 100% | 100% | 100% | 100% | 100% | 100% | 100% |
| CCOC(=O)C1(C)CC(c2cc(-c3ncc(C(F)(F)F)cc3Cl)ccc2Cl)=NO1 (stereo not drawn) [Compound 1-99, Ethyl 3-[2-chloro-5-[3-chloro-5-(trifluoromethyl)-2-pyridyl]-phenyl]-5-methyl-4H-isoxazole-5-carboxylate] | 100% | 100% | 100% | 100% | 80% | 100% | 100% | 100% | 100% | 100% | 100% | 100% | 100% | 100% | 100% |
| CC1(C(=O)O)CC(c2cc(-c3ncc(C(F)(F)F)cc3Cl)c(F)cc2Cl)=NO1 (stereo not drawn) [Compound 1-101, 3-[2-chloro-5-(3-chloro-5-trifluoromethyl-2-pyridyl)-4-fluoro-phenyl]-5-methyl-4H-isoxazole-5-carboxylic acid] | 100% | 100% | 100% | 100% | 80% | 100% | 100% | 100% | 100% | 100% | 100% | 100% | 100% | 100% | 100% |
| CCOC(=O)C1(C)CC(c2cc(-c3ncc(C(F)(F)F)cc3Cl)c(F)cc2Cl)=NO1 (stereo not drawn) [Compound 1-103, Ethyl 3-[2-chloro-5-(3-chloro-5-trifluoromethyl-2-pyridyl)-4-fluoro-phenyl]-5-methyl-4H-isoxazole-5-carboxylate] | 80% | 100% | 100% | 90% | 80% | 100% | 100% | 100% | 100% | 100% | 100% | 100% | 100% | 100% | 100% |
| CCOC(=O)C1(C)CC(c2cc(-c3ncc(Cl)cc3Cl)c(F)cc2Cl)=NO1 (stereo not drawn) [Compound 1-115, Ethyl 3-[2-chloro-5-(3,5-dichloro-2-pyridyl)-4-fluoro-phenyl]-5-methyl-4H-isoxazole-5-carboxylate] | 60% | 100% | 80% | 80% | 50% | 100% | 100% | 100% | 100% | 100% | 100% | 100% | 100% | 100% | 100% |
| CCOC(=O)C1(C)CC(c2cc(-c3ncccc3Cl)c(F)cc2Cl)=NO1 (stereo not drawn) [Compound 1-127, Ethyl 3-[2-chloro-5-(3-chloro-2-pyridyl)-4-fluoro-phenyl]-5-methyl-4H-isoxazole-5-carboxylate] | 70% | 40% | 50% | 50% | 20% | 100% | 100% | 100% | 100% | 30% | 100% | 50% | 90% | 10% | 80% |
| CCOC(=O)C1(C)CC(c2cc(-c3ccccn3)c(F)cc2Cl)=NO1 (stereo not drawn) [Compound 1-139, Ethyl 3-[2-chloro-4-fluoro-5-(2-pyridyl)phenyl]-5-methyl-4H-isoxazole-5-carboxylate] | 0% | 0% | 0% | 0% | 0% | 0% | 0% | 10% | 0% | 0% | 20% | 0% | 0% | 0% | 10% |
| CCOC(=O)C1(C)CC(c2cc(-c3ncc(C)cc3Cl)c(F)cc2Cl)=NO1 (stereo not drawn) [Compound 1-175, Ethyl 3-[2-chloro-5-(3-chloro-5-methyl-2-pyridyl)-4-fluoro-phenyl]-5-methyl-4H-isoxazole-5-carboxylate] | 80% | 30% | 50% | 60% | 20% | 60% | 100% | 100% | 100% | 70% | 100% | 70% | 100% | 90% | 100% |
